This passage reports Ki results from ChEMBL document CHEMBL1782020, “Novel 7-phenylsulfanyl-1,2,3,4,10,10a-hexahydro-pyrazino[1,2-a]indoles as dual serotonin 5-HT2C and 5-HT6 receptor ligands” (Bioorg Med Chem Lett, 2010).

Each structure is given as a SMILES string.

For one experiment, the target named is 5-hydroxytryptamine receptor 6 (Homo sapiens, UniProt P50406). As to the kind of experiment: Displacement of [3H]5-LSD from human 5HT6 receptor expressed in human HeLa cells. The format is cell-based.
Chain of 5-hydroxytryptamine receptor 6 (P50406 whole entry): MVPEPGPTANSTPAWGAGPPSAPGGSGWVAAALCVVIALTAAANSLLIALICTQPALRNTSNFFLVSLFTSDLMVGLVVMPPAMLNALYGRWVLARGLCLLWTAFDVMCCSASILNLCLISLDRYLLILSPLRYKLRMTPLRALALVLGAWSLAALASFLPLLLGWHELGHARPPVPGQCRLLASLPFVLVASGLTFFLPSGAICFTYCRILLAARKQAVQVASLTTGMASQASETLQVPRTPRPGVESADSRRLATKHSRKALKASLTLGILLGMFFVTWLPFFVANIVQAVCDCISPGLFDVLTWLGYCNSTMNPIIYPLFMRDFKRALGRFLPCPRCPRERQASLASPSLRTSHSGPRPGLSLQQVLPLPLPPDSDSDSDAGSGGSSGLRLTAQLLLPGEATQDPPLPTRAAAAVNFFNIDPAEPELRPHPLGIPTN
The compound `Cc1ccccc1Sc1ccc2c(c1)N1CCNCC1C2` (stereo unspecified) returned a Ki of 0.081 µM.

`FC(F)(F)c1cccc(Sc2ccc3c(c2)N2CCNCC2C3)c1` (stereo unspecified) returned a Ki of 0.3 µM.

`Cc1ccc(Sc2ccc3c(c2)N2CCNCC2C3)cc1` (stereo unspecified) showed a Ki of 0.11 µM.

Compound `COc1ccccc1Sc1ccc2c(c1)N1CCNCC1C2` (stereo unspecified) yielded a Ki of 0.023 µM.

`COc1cccc(Sc2ccc3c(c2)N2CCNCC2C3)c1` (stereo unspecified) registered a Ki of 0.11 µM.

The compound `COc1ccc(Sc2ccc3c(c2)N2CCNCC2C3)cc1` (stereo unspecified) gave a Ki of 0.078 µM.

Turning to `Fc1ccccc1Sc1ccc2c(c1)N1CCNCC1C2` (stereo unspecified), affinity was put at a Ki of 0.15 µM.

`Fc1ccc(Sc2ccc3c(c2)N2CCNCC2C3)cc1` (stereo unspecified) gave a Ki of 0.16 µM.

On to `FC(F)(F)c1ccccc1Sc1ccc2c(c1)N1CCNCC1C2` (stereo unspecified), for which the Ki is 0.33 µM.

`O=C1NCCN1CCN1CCC(c2cn(-c3ccc(F)cc3)c3ccc(Cl)cc23)CC1` [SERTINDOLE] came in with a Ki of 0.005 µM.

For the compound `FC(F)(F)c1ccc(Sc2ccc3c(c2)N2CCNCC2C3)cc1` (stereo unspecified), the Ki is 0.76 µM.

Take `Cc1cccc(Sc2ccc3c(c2)N2CCNCC2C3)c1` (stereo unspecified): affinity was put at a Ki of 0.05 µM.

The target of another experiment is T1, 5-hydroxytryptamine receptor 2C (Homo sapiens, UniProt P28335).
T1 sequence (P28335 whole entry): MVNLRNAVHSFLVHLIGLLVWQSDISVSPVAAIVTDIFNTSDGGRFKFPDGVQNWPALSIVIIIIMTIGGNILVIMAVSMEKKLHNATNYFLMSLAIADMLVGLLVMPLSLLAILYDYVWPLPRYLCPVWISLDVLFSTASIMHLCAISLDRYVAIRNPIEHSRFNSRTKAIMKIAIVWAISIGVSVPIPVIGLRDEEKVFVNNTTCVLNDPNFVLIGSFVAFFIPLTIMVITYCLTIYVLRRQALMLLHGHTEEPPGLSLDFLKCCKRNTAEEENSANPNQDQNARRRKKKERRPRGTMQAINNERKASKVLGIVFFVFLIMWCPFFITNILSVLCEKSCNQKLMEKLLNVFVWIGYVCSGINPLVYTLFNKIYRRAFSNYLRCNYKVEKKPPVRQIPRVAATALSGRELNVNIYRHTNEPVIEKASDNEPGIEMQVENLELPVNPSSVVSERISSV
Put plainly: Displacement of [3H]mesulergine from human 5HT2C receptor in human tsA201 cells. In kind it is cell-based.
The compound `Cc1ccccc1Sc1ccc2c(c1)N1CCNCC1C2` (stereo unspecified) yielded a Ki of 0.049 µM.

In the case of `FC(F)(F)c1cccc(Sc2ccc3c(c2)N2CCNCC2C3)c1` (stereo unspecified), the affinity corresponds to a Ki of 0.18 µM.

In turn, `c1ccc(Sc2cccc(N3CCNCC3)c2)cc1` came in with a Ki of 0.091 µM.

In the case of `Cc1ccc(Sc2ccc3c(c2)N2CCNCC2C3)cc1` (stereo unspecified), the affinity, expressed as Ki, was 0.068 µM.

For `NCCc1cccc(Sc2ccccc2)c1`, the affinity corresponds to a Ki of 0.15 µM.

Compound `COc1ccccc1Sc1ccc2c(c1)N1CCNCC1C2` (stereo unspecified) displayed a Ki of 0.041 µM.

For the compound `COc1cccc(Sc2ccc3c(c2)N2CCNCC2C3)c1` (stereo unspecified), the Ki is 0.12 µM.

On to `COc1ccc(Sc2ccc3c(c2)N2CCNCC2C3)cc1` (stereo unspecified), for which the Ki is 0.057 µM.

For the compound `Fc1ccccc1Sc1ccc2c(c1)N1CCNCC1C2` (stereo unspecified), the affinity, expressed as Ki, was 0.049 µM.

`Fc1ccc(Sc2ccc3c(c2)N2CCNCC2C3)cc1` (stereo unspecified) showed an inhibition constant Ki of 0.061 µM.

Compound `COc1ccc(Sc2cccc(N3CCNCC3)c2)cc1` had an inhibitory constant (Ki) of 0.074 µM.

With `FC(F)(F)c1ccccc1Sc1ccc2c(c1)N1CCNCC1C2` (stereo unspecified), the affinity corresponds to a Ki of 0.083 µM.

For `FC(F)(F)c1ccc(Sc2ccc3c(c2)N2CCNCC2C3)cc1` (stereo unspecified), the Ki was found to be 0.28 µM.

Regarding `Cc1cccc(Sc2ccc3c(c2)N2CCNCC2C3)c1` (stereo unspecified), the affinity, expressed as Ki, was 0.077 µM.

The Ki is the dissociation constant of the complex between target and ligand, obtained from inhibition or displacement. A low value points to higher affinity.
